This is an account of results in patent US11512087B2, “BRK inhibitory compound” (priority 2015, dated 2022).

pIC50: −log10 of the molar value.

In one test the target is Lck (Homo sapiens (Human), UniProt P06239). Put plainly: Lck inhibitory activity (Z'-LYTE Kinase Assay Kit-Tyr 2 Peptide, FRET). The test is classed as biochemical. The protocol: The Lck activity was determined by using Fluorescence Resonance Energy Transfer (FRET) method.
A dilute solution (5 μL) of the compound of the present invention in dimethylsulfoxide (DMSO; Sigma-Aldrich Co. LLC) was added to a 96-well assay plate. In addition, Peptide/Kinase Buffer composed of DL-dithiothreitol (DTT; 2 mM), Tyr 2 Peptide (2 μM), Kinase Buffer and Lck was added to the assay plate, and the reaction solution was preincubated at 25° C. for 20 minutes. […] After incubation, Coloring Solution A (10 μL) composed of Coloring Reagent B and Coloring Buffer was added, and the reaction solution was incubated at 25° C. for 1 hour. Stop Reagent (10 μL) was added to each well such that the enzymatic reaction stopped. The fluorescent coloring of each well was measured on a fluorescent plate reader by using wavelengths of 445 nm and 520 nm. The ratio of phosphorylation was determined by a ratio of coloring at 445 nm to that at 520 nm according to the attached manual.
The inhibition rate (%) of the compound of the present invention was calculated according to the following Numerical Formula 2. Inhibition rate (%)={1−(AX−AB)/(AC−AB)}×100 [Numerical Formula 2]
AX: Ratio of phosphorylation at addition of the compound of the present invention
AB: Ratio of phosphorylation in blank
AC: Ratio of phosphorylation at addition of only DMSO

The next test addresses Syk kinase (Homo sapiens (Human), UniProt P43405). The experiment in a line: Syk inhibitory activity (mobility shift, QuickScout Screening Assist MSA). The test is classed as biochemical. To be noted: read-out: Syk inhibitory activity (Inhibition rate at 1 μM of compound). On the procedure: The compound of the present invention was dissolved in DMSO to prepare a solution with a concentration of 100 times the test concentration of 1 μmol/L. The solution was further diluted 25-fold with Assay Buffer (20 mmol/L HEPES, 0.01% Triton X-100, 2 mmol/L DTT, pH 7.5) to give a test substance solution. With regard to a positive control substance (Staurosporine), a solution of the positive control substance was prepared in a similar manner.
Five microliters of a test substance solution with a concentration of four times prepared by using Assay Buffer, 5 μL of a solution of a substrate (Blk/Lyntide)/ATP/a metal (Mg) with a concentration of four times and 10 μL of a solution of Syk kinase with a concentration of two times were mixed in a well of a 384-well plate made of polypropylene, and the mixture was subjected to a reaction at room temperature for 1 hour (the final concentration of the substrate was 1,000 nmol/L, and the final concentration of ATP was 26 μmol/L). To the mixture, 60 μL of Termination Buffer (QuickScout Screening Assist MSA; Carna Biosciences, Inc.) was added to stop the reaction. The substrate peptide and the phosphorylated peptide in the reaction solution were separated, and were quantified. The kinase reaction was evaluated by a product ratio (P/(P+S)) calculated from a peak height (S) of the substrate peptide and a peak height (P) of the phosphorylated peptide.

Sequence of Lck (P06239 whole entry, species assumed): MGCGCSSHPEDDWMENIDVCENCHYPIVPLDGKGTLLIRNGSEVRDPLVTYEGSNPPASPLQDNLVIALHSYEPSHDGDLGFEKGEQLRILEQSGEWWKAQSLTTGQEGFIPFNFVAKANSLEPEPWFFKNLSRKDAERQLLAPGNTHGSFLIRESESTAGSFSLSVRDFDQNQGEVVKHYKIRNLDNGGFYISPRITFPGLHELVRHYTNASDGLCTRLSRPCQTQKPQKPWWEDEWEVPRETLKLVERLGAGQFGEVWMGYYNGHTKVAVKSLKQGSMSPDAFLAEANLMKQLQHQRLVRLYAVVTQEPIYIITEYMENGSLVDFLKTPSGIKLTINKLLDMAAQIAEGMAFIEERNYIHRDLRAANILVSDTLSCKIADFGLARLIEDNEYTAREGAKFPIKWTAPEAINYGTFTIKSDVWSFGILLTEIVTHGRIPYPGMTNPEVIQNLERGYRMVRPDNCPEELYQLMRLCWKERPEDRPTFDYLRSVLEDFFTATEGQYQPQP

One may read the pIC50 as −log10 of the IC50, conventionally taken in molar units. Read a high pIC50 as a low IC50. For orientation: inhibition means the relative decrease from the control value, in per cent. Compound `Cc1nn(C)cc1Nc1nc(N)c2c(-c3ccc4[nH]ccc4c3)nn(C(C)C)c2n1` [Example 1, N^6-(1,3-dimethyl-1H-pyrazol-4-yl)-3-(1H-indol-5-yl)-1-isopropyl-1H-pyrazolo[3,4-d]pyrimidine-4,6-diamine] gave a pIC50 on Lck of under 5.00. For the same compound, the inhibition at 1 µM on Syk kinase turned out to be 0%.
Taken in the same sequence, the figures for `CC(C)n1nc(-c2ccc(F)c3[nH]ncc23)c2c(N)nc(Nc3ccc(S(C)(=O)=O)cc3F)nc21` [Example 4-3, 3-(7-Fluoro-1H-indazol-4-yl)-N^6-[2-fluoro-4-(methylsulfonyl)phenyl]-1-isopropyl-1H-pyrazolo[3,4-d]pyrimidine-4,6-diamine] were 5.60 and 0%.
Compound `CC(C)n1cc(-c2ccc(C#N)c3[nH]ncc23)c2c(N)nc(Nc3ccc(S(C)(=O)=O)cc3F)nc21` [Example 13-1, 4-(4-Amino-2-{[2-fluoro-4-(methylsulfonyl)phenyl]amino}-7-isopropyl-7H-pyrrolo[2,3-d]pyrimidin-5-yl)-1H-indazole-7-carbonitrile] had a pIC50 against Lck of under 5.00. Besides, the inhibition at 1 µM on Syk kinase stood at 0%.
